{"source": "a melting point compilation (Tetko et al.; mined from patent text by program, amines drawn as free bases though some values may be those of a salt)", "data": [{"units": {"melting point": "°C"}, "values": [{"molecule": "CC(=O)NCC1CN(c2ccc(N3CCN(c4nc(C)ns4)CC3)c(F)c2)C(=O)O1", "note": "(stereo not given)", "melting point": "168 to 170"}, {"molecule": "COc1cc(C2COc3c(C)c(C)c(NC(=O)CC(C)(C)C)c(C)c32)ccc1C(C)C", "note": "(stereo not given)", "melting point": "170 to 171"}, {"molecule": "O=S(=O)(N[C@H]1CC[C@H](CCN2CCN(c3nccc4c3CCO4)CC2)CC1)c1ccc(F)cc1", "melting point": 221}, {"molecule": "CCCN[C@@H](Cc1ccc(OCCNC(=O)c2ccc(-c3ccccn3)cc2)cc1)C(=O)O", "melting point": "242 to 244"}, {"molecule": "COC(=O)c1cc(Cl)c(Cl)cc1C#N", "melting point": "120 to 123"}, {"molecule": "CN(c1nc(-c2cc3ccccc3[nH]c2=O)cs1)S(=O)(=O)c1ccc(Br)cc1", "melting point": "280 to 282"}, {"molecule": "C=CCc1c(O)cc(C)c2ccc(=O)oc12", "melting point": 177}, {"molecule": "COc1cccc2c1CCCC2CN=[N+]=[N-]", "note": "(stereo not given)", "melting point": "65 to 66"}, {"molecule": "CCOc1ccc(C2=NNC(=O)[C@H]3CCCC[C@@H]23)cc1OCC", "note": "(relative stereo)", "melting point": "156 to 157"}, {"molecule": "Cc1ccccc1OCC(O)CNCCOc1ccc(C(N)=O)cn1", "note": "(stereo not given)", "melting point": "139 to 141"}, {"molecule": "COc1cc2nc(N3CCc4ccc(NC(C)=O)cc4C3)nc(N)c2cc1OC", "melting point": "243 to 244"}, {"molecule": "CC(C)CC(C(=O)Nc1cc(Cl)cc(Cl)c1)N1C(=O)C=CC1=O", "note": "(stereo not given)", "melting point": 150}, {"molecule": "CCCOc1ccccc1C1=NC(=O)C2=NC(C(F)(F)F)=NC2=N1", "melting point": "255 to 260"}, {"molecule": "N#CC1CN1C(=O)c1ccccn1", "note": "(stereo not given)", "melting point": "124 to 127"}, {"molecule": "CCOC(=O)C1C(=O)N(c2ccc(Cl)c(Cl)c2)N=C1C", "note": "(stereo not given)", "melting point": "147 to 148"}, {"molecule": "COc1nc(N2CCCCC2)nc(OC)c1O", "melting point": 109}, {"molecule": "Nc1ncnn1C(=S)NCCCCCO", "melting point": "108 to 109"}, {"molecule": "CC(=O)c1ccc2c(c1)C(Cc1ccccc1)=CC(=CCl)CO2", "melting point": "89 to 94"}, {"molecule": "OCc1nc2ccc(Cl)nc2[nH]1", "melting point": "224 to 226"}, {"molecule": "Cc1ccc(NC(=O)c2ccc3c(c2)C(=O)N(c2c(Cl)cccc2Cl)C3=O)cc1C", "melting point": "238 to 240"}, {"molecule": "Cc1cccc(C2(c3cccc(C)c3)CCC(=O)[C@H]3CN(C(=O)Cc4ccccc4)C[C@H]32)c1", "note": "(racemic)", "melting point": 207}, {"molecule": "CN1CCC(c2ccccc2)(C(C)(C)O)CC1", "melting point": "146 to 147"}, {"molecule": "O=C1CC2(CCc3cc4ccccc4n3C2)C(=O)N1", "note": "(stereo not given)", "melting point": "208 to 210"}, {"molecule": "Cc1nc(C)c(Cl)c(NCc2nccc(SCCCCN3CCNCC3)c2C)n1", "melting point": "143 to 145"}, {"molecule": "NC(Cc1ccccc1)C(O)C(N)Cc1ccccc1", "note": "(stereo not given)", "melting point": "106 to 107"}, {"molecule": "CCC1c2ccc(F)n2-c2ccc(F)cc2N1S(=O)(=O)c1ccc(O)c(C)c1", "note": "(stereo not given)", "melting point": "149 to 151"}, {"molecule": "Cc1nc[nH]c1CSCCNc1nc(C)c(-c2ccccc2)c(=O)[nH]1", "melting point": "216 to 218"}, {"molecule": "COc1ccc(N2CCN(c3ccc(NC(=O)NCC(OC)OC)cc3)CC2)cc1", "melting point": 225}, {"molecule": "COC(=O)c1ccc(O)cc1NC(=O)c1ccc(C(C)(C)C)cc1", "melting point": "146 to 148"}, {"molecule": "N#Cc1ccc(C(=CC(=O)N2CCCCC2)n2ccnc2)cc1", "melting point": "160 to 165"}, {"molecule": "COCCN(CCOC)c1nc2cc(-c3ccc(Cl)cc3)nnc2c2ccccc12", "melting point": "123 to 125"}, {"molecule": "Nc1ncccc1CNC1CCN(Cc2ccccc2)CC1", "melting point": 114}, {"molecule": "CC(C#Cc1ccc(Oc2ccccc2)cc1)N(O)C(N)=O", "note": "(stereo not given)", "melting point": "141 to 142"}, {"molecule": "O=C(O)CCNC(=O)NCCCN1CCN(c2ccccc2)CC1", "melting point": "169 to 171"}, {"molecule": "Cc1ccc(OC(=O)CCCC(=O)OOC(=O)CCCC(=O)Oc2ccc(C)cc2)cc1", "melting point": "24 to 30"}, {"molecule": "COc1ccccc1N1CCN(CCNC(=O)c2cccc(OC)c2OC)CC1", "melting point": "133 to 134"}, {"molecule": "CCCNC1=NS(=O)(=O)c2c(sc(C)c2C#N)N1", "melting point": "293 to 298"}, {"molecule": "O=C1c2c(O)ccc(O)c2C(=O)c2c(NCCN(CCO)C(=O)C(F)(F)F)ccc(NCCN(CCO)C(=O)C(F)(F)F)c21", "melting point": 162}, {"molecule": "O=c1[nH]c2cc(Cl)ccc2n1CCCO", "melting point": 149}, {"molecule": "Cc1c(F)c(F)cc2c1c(=O)c(C(=O)O)cn2C1CC1", "melting point": "294 to 298"}, {"molecule": "COc1ccc2cc(-c3nc(-c4ccncc4)no3)c(=O)oc2c1", "melting point": 300}, {"molecule": "COC1CC(NC(=O)C(F)(F)F)C(C)(O)C(C)O1", "note": "(stereo not given)", "melting point": "133 to 134"}, {"molecule": "CC(=O)C(Cc1ccc(O)cc1)C(C)=O", "melting point": "93 to 94.5"}, {"molecule": "Cc1cc(O)cc(Cl)c1Cl", "melting point": "98 to 100"}, {"molecule": "CCCCCCCCCCCCCCOc1ccc(CBr)cc1", "melting point": "40 to 41"}, {"molecule": "CC(C)(C)c1cc(C=C2SC(NC#N)=NC2=O)cc(C(C)(C)C)c1O", "melting point": "240 to 242"}, {"molecule": "CN(C(=O)CN(C(=O)CNC(=O)Nc1cccc(S(N)(=O)=O)c1)c1ccccc1)c1ccccc1", "melting point": 175}, {"molecule": "Cn1ncnc1COc1nc2c(-c3ccccc3F)nncn2c1C1CCC1", "melting point": 120}, {"molecule": "CCCCCCCCCCC(O)C(=O)N[C@@H](CCCC)CCC(=O)O", "note": "(stereo not given in full)", "melting point": "53 to 55"}, {"molecule": "O=C1NCCn2c1cc1ccccc12", "melting point": "228 to 230"}, {"molecule": "CCCC(=O)c1cnc2ccc(COC(=O)c3ccccc3)cc2c1Nc1ccccc1C", "melting point": "142 to 144"}, {"molecule": "CS(=O)(=O)c1ccc(-c2sc(-c3ccc(Br)s3)nc2-c2ccc(F)cc2)cc1", "melting point": "190 to 191"}, {"molecule": "COC(=O)OCC(COC(=O)OC)OCn1cnc2c(=O)[nH]c(N)nc21", "melting point": "204 to 206"}, {"molecule": "Cc1ccc(C(=O)c2cc(CN(C)C)c(O)c(C(C)(C)C)c2)s1", "melting point": "119 to 120"}, {"molecule": "NC(=O)Nc1n[nH]c(-c2ccncc2)c1-c1ccc(F)cc1", "melting point": "224 to 225"}, {"molecule": "O=C(Nc1ccc(CN2CCCCC2)cc1)C1=Cc2cc(-c3ccc(F)cc3)ccc2CC1", "melting point": "175 to 176"}, {"molecule": "N#Cc1ccc2sc(CBr)nc2c1", "melting point": "185 to 186"}, {"molecule": "O=c1c2c(Cc3ccccc3C(F)(F)F)n[nH]c2c2cccnc2n1-c1ccccc1", "melting point": "292 to 294"}, {"molecule": "CCOC(=O)CCC12CCC(=O)N1C(=O)CC2", "melting point": "104 to 105"}, {"molecule": "COc1cc(-c2cc3c(Cl)ccnc3[nH]2)cc(OC)c1OC", "melting point": "188 to 190"}, {"molecule": "CCCC(CC)(CC)C(=O)O[C@H]1C[C@H](O)C=C2C=C[C@H](C)[C@H](CC[C@@H]3C[C@@H](O)CC(=O)O3)[C@H]21", "melting point": "130 to 131"}, {"molecule": "C#CCOC(=O)C1=C(C)NC(C)=C(C(=O)OCC)C1c1ccccc1C(F)(F)F", "note": "(stereo not given)", "melting point": 130}, {"molecule": "Cc1cc(C(=O)O)cc(C)c1C(O)c1cc(-n2ccnc2)ccc1Cl", "note": "(stereo not given)", "melting point": "317 to 320"}, {"molecule": "CCCCc1ccc(CNc2cc(C(=O)Nc3ccccc3)ccc2OC)cc1", "melting point": "171 to 173"}, {"molecule": "O=[N+]([O-])C=Cc1cccc2[nH]ccc12", "melting point": "152 to 154"}, {"molecule": "COc1ccc(NC(=O)N=C2CCCN2C)cc1OC", "melting point": "118 to 120"}, {"molecule": "Cc1ccc(-c2cn3cc(C(F)(F)F)ccc3n2)cc1", "melting point": "187 to 188"}, {"molecule": "CC#CC1CCC(C2CCC(c3ccc(CCC)cc3)CC2)CC1", "note": "(stereo not given)", "melting point": 70}, {"molecule": "CCCCC1(CC)COP(=O)(Cc2ccc([N+](=O)[O-])cc2)OC1", "note": "(stereo not given)", "melting point": "111 to 112"}, {"molecule": "NC(=O)N(O)[C@H]1CC[C@H](Oc2ccccc2)C1", "melting point": 134}, {"molecule": "Cc1cc2c3c(cc(Br)cc3c1Br)C(=O)N(O)C2=O", "melting point": "320 to 323"}, {"molecule": "Cc1c(NC(=O)c2ccc(OC[C@@H]3CCCO3)cc2)ccc2c1cc(CNC1CCCC1)n2C", "melting point": 189}, {"molecule": "CCc1ccnc(C(=O)c2[nH]c3ccc(Cl)cc3c2CC(=O)O)c1F", "melting point": 208}, {"molecule": "COC(=O)C[C@H](O)C[C@H](O)CCc1c(-c2ccc(F)cc2)c(-c2ccccc2)c(C(=O)NCc2ccccc2)n1C(C)C", "melting point": "52 to 55"}, {"molecule": "COC(=O)[C@@](C#N)(Cc1ccccn1)[C@H](c1ccccc1OC)c1cccc2ccccc12", "note": "(relative stereo)", "melting point": "194 to 196"}, {"molecule": "N=C1CCCN1Cc1ccc(Cl)nc1", "melting point": 166}, {"molecule": "CCOP(=O)(/C=C/c1cn(-c2ccccc2)nc1OCc1ccc(OCc2nc(-c3ccccc3)oc2C)cc1)OCC", "melting point": "109 to 110"}, {"molecule": "COc1ccc(S(=O)(=O)Nc2ccc(F)cc2Nc2ccccc2)cc1", "melting point": "173 to 174"}, {"molecule": "O=C(Nc1cc(C2OCCCO2)ccc1O)c1ccccc1OCCCCc1ccccc1", "melting point": "122 to 123"}, {"molecule": "O=[N+]([O-])c1ccc(Oc2c(Cl)cc(S(=O)(=O)NC(=NO)Nc3ccc(Cl)cc3)cc2Cl)c(Cl)c1", "melting point": 180}, {"molecule": "COc1cc2c(cc1OCc1ccccc1)CCN(Cc1cccc(O)c1)C2", "melting point": "78 to 79"}, {"molecule": "CC(=O)CCC(C)C1CC=C2C3=C(CCC21C)C1(C)CCC(O)C(C)(C)C1CC3", "note": "(stereo not given)", "melting point": "183 to 185"}, {"molecule": "CC(C)OC(=O)c1cc(-c2ccccc2)c(=O)n2c1-c1sccc1CC2", "melting point": 166}, {"molecule": "CC(=O)c1c(F)c(F)c(OCCOc2ccc3ccccc3c2)c(F)c1F", "melting point": "114 to 115"}, {"molecule": "O=C(Nc1ccccc1)N1CCN2C(=O)OC(c3ccccc3)(c3ccccc3)C2C1", "note": "(stereo not given)", "melting point": "117 to 118"}, {"molecule": "Nc1cccc(CN2CCN(C(c3ccccc3)c3ccccc3)CC2)c1", "melting point": "104 to 106"}, {"molecule": "CC(C)(C#N)c1cc(CSc2ccc(O)c(Cl)c2)cc(Cn2cncn2)c1", "melting point": 131}, {"molecule": "Cc1sc(C(=O)O)c2c1-c1c(cnn1Cc1ccccc1)CC2", "melting point": "231 to 232"}, {"molecule": "COCC(=O)NNC(=O)N1Cc2ccccc2Oc2ccc(Cl)cc21", "melting point": "167 to 169"}, {"molecule": "COC(=O)[C@@H]1c2ccccc2C[C@@H]1O", "melting point": "72.5 to 73.5"}, {"molecule": "N#CCCNC(=O)c1cccc(-c2cccc3nn(Cc4cccc(Cl)c4)cc23)c1", "melting point": "185 to 186"}, {"molecule": "CC1=C(CC(NC(=O)c2ccc(Cl)cc2)NC(=N[N+](=O)[O-])Nc2cccnc2)C(C)(C)CCC1", "note": "(stereo not given)", "melting point": "217 to 218"}, {"molecule": "CC(C)(C(=O)O)c1nc2ccc(NCCCN3CCC(OC(c4ccccc4)c4ccccc4)CC3)nn2c1Cl", "melting point": "133 to 135"}, {"molecule": "CC(C)(CO)CNC(=O)c1n[nH]cc1NC(=O)c1ccccn1", "melting point": "217 to 218"}, {"molecule": "CN1CCC(C2CCN(c3ncc4ncnc(Nc5ccc(F)c(Cl)c5)c4n3)CC2)CC1", "melting point": "159 to 162"}, {"molecule": "O=C1NCCN1C(c1ccccc1)c1ccccc1", "melting point": "200 to 202"}, {"molecule": "O=C1c2ccccc2C(=O)c2oc(-c3cccs3)nc21", "melting point": "> 260"}, {"molecule": "CC1=C(C(=O)OC(C)(C)C)C(c2ccccc2I)C(C(=O)OC(C)(C)C)=C(C)N1", "melting point": "184 to 185"}, {"molecule": "CN(C)Cc1ccc(CSCCNC(=C[N+](=O)[O-])NCCSCc2ccc(CN(C)C)o2)o1", "melting point": "58 to 62"}, {"molecule": "COc1cccc2c(Nc3ccccc3C)c(C(=O)CCC(=O)O)cnc12", "melting point": "263 to 265"}]}]}
